This experiment has as its system High Grade PIN. Nature of the experiment: Treatment of a patient with High Grade PIN, repeat prostate biopsy. Format: in vivo, human. As to conditions: person with High Grade PIN; 225 mg per day once daily, 30 doses; 12 biopsies two weeks after last dose; on Atorvastatin 20 mg daily. The protocol: A person was diagnosed as having High Grade PIN. The diagnosis was based upon 12 biopsies which were done in conjunction with ultrasound localization of the biopsy site, with careful recording of there anatomical position. The patient was started on Bexarotene 225 mg per day. The drug was given as a single dose once daily. […] During the period of therapy the patient was on Atorvastatin 20 mg daily. During the therapy, total cholesterol was 183 mg with a reference range <200 mg/dL, triglycerides were 207 with normal being less than 150 mg/dL, thyroid stimulation hormone (TSH) was 0.07 with the reference range 0.4-5.5 mIU/L, T4 total was 7.4 with the normal range 4.5-12.0 mcg/dL. The Hepatic Function Panel was normal as was the complete blood count (CBC). Two weeks following the last dose of Bexarotene the prostate was rebiopsied with 12 biopsies taken. Six of the biopsies were taken from the putative area, the rest in an enlarging target like pattern. The repeat biopsy was negative for the presence of PIN.

For `C=C(c1ccc(C(=O)O)cc1)c1cc2c(cc1C)C(C)(C)CCC2(C)C` [Bexarotene, 4-[1-(5,6,7,8-tetrahydro-3,5,5,8,8-pentamethyl-2-naphthalenyl)ethenyl] benzoic acid], the “Repeat biopsy, presence of PIN” value is reported as “negative”.

For the origin of these results see patent publication US20110201664A1, “Methods and Compositions for Treatment of Prostate Intraepithelial Neoplasia” (priority 2006, published 2011).
